Test results published in PubChem BioAssay (NCI).
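Protocol summary: plate cells (96-well), add compound at 5 concentrations, incubate 48 h, interpolate endpoints linearly. At the TGI there is no net growth.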

Tests used:
Test in all cases: DTP human tumour cell line panel, 48 h
[1] = system: HOP-18 NSCLC
[2] = system: U251 CNS
[3] = system: SW-620 colon
[4] = system: OVCAR-3 ovarian
[5] = system: EKVX NSCLC
[6] = system: MALME-3M melanoma
[7] = system: SF-539 CNS
[8] = system: SK-OV-3 ovarian
[9] = system: OVCAR-4 ovarian
[10] = system: A498 renal
[11] = system: LOX IMVI melanoma
[12] = system: UACC-62 melanoma
[13] = system: RXF 393 renal
[14] = system: SK-MEL-28 melanoma
[15] = system: M14 melanoma
[16] = system: IGROV1 ovarian
[17] = system: DMS 114 small cell lung
[18] = system: SN12C renal
[19] = system: 786-0 renal
[20] = system: RXF-631 renal
[21] = system: UO-31 renal
[22] = system: MOLT-4 leukemia
[23] = system: HCC-2998 colon
[24] = system: COLO 205 colon
[25] = system: HOP-92 NSCLC
[26] = system: UACC-257 melanoma
[27] = system: TK-10 renal
[28] = system: SNB-19 CNS
[29] = system: HT29 colon
[30] = system: OVCAR-5 ovarian
[31] = system: HCT-15 colon
[32] = system: SF-268 CNS
[33] = system: A549 NSCLC
[34] = system: ACHN renal
[35] = system: SNB-78 CNS
[36] = system: DMS 273 small cell lung
[37] = system: OVCAR-8 ovarian
[38] = system: HCT-116 colon
[39] = system: LXFL 529 NSCLC
[40] = system: NCI-H460 lung
[41] = system: KM12 colon
[42] = system: HOP-62 NSCLC
[43] = system: M19-MEL melanoma
[44] = system: SK-MEL-2 melanoma
[45] = system: KM20L2 colon
[46] = system: DLD-1 colon
[47] = system: CCRF-CEM leukemia
[48] = system: RPMI-8226 leukemia
[49] = system: NCI-H522 lung
[50] = system: SF-295 CNS
[51] = system: HL-60(TB) leukemia
[52] = system: K-562 leukemia
[53] = system: SNB-75 CNS
[54] = system: NCI-H23 lung
[55] = system: SK-MEL-5 melanoma
[56] = system: NCI-H226 lung
[57] = system: XF 498 CNS

Structure (SMILES): O/N=C1\CCCCC1C(NO)c1ccccc1 (stereo not given)
- TGI [1]: > 100 µM
- TGI [2]: > 100 µM
- TGI [3]: > 100 µM
- TGI [4]: > 100 µM
- TGI [5]: > 100 µM
- TGI [6]: > 100 µM
- TGI [7]: > 100 µM
- TGI [8]: > 100 µM
- TGI [9]: > 100 µM
- TGI [10]: > 100 µM
- TGI [11]: > 100 µM
- TGI [12]: > 100 µM
- TGI [13]: > 100 µM
- TGI [14]: > 100 µM
- TGI [15]: > 100 µM
- TGI [16]: > 100 µM
- TGI [17]: > 100 µM
- TGI [18]: > 100 µM
- TGI [19]: > 100 µM
- TGI [20]: > 100 µM
- TGI [21]: > 100 µM
- TGI [22]: > 100 µM
- TGI [23]: > 100 µM
- TGI [24]: > 100 µM
- TGI [25]: > 100 µM
- TGI [26]: > 100 µM
- TGI [27]: > 100 µM
- TGI [28]: > 100 µM
- TGI [29]: > 100 µM
- TGI [30]: > 100 µM
- TGI [31]: > 100 µM
- TGI [32]: > 100 µM
- TGI [33]: > 100 µM
- TGI [34]: > 100 µM
- TGI [35]: > 100 µM
- TGI [36]: > 100 µM
- TGI [37]: > 100 µM
- TGI [38]: > 100 µM
- TGI [39]: > 100 µM
- TGI [40]: > 100 µM
- TGI [41]: > 100 µM
- TGI [42]: > 100 µM
- TGI [43]: > 100 µM
- TGI [44]: > 100 µM
- TGI [45]: > 100 µM
- TGI [46]: > 100 µM
- TGI [47]: > 100 µM
- TGI [48]: > 100 µM
- TGI [49]: > 100 µM
- TGI [50]: > 100 µM
- TGI [51]: > 100 µM
- TGI [52]: > 100 µM
- TGI [53]: > 100 µM
- TGI [54]: > 100 µM

Structure (SMILES): CCOC(=O)/C=C1/C(CCCOCc2ccccc2)C2CCCC23CC2(CCN13)OCCO2 (stereo not given)
- TGI [1]: 50 µM
- TGI [2]: 51.4 µM
- TGI [3]: > 100 µM
- TGI [4]: 49.4 µM
- TGI [55]: 34.8 µM
- TGI [5]: > 100 µM
- TGI [56]: 66.7 µM
- TGI [6]: 33.9 µM
- TGI [8]: 82.9 µM
- TGI [57]: 26.8 µM
- TGI [9]: > 100 µM
- TGI [10]: 50.3 µM
- TGI [11]: 37.9 µM
- TGI [12]: 50 µM
- TGI [13]: 37.5 µM
- TGI [14]: 51.3 µM
- TGI [16]: > 100 µM
- TGI [17]: 32.9 µM
- TGI [18]: 86.8 µM
- TGI [20]: 94.6 µM
- TGI [21]: 64.5 µM
- TGI [22]: 33.2 µM
- TGI [23]: > 100 µM
- TGI [24]: 34.2 µM
- TGI [26]: 53.9 µM
- TGI [27]: > 100 µM
- TGI [28]: > 100 µM
- TGI [29]: 45.4 µM
- TGI [30]: > 100 µM
- TGI [31]: 51.5 µM
- TGI [32]: > 100 µM
- TGI [33]: 63.9 µM
- TGI [34]: 83.9 µM
- TGI [35]: 85.8 µM
- TGI [36]: 37.9 µM
- TGI [37]: > 100 µM
- TGI [39]: 90.2 µM
- TGI [40]: 47.1 µM
- TGI [41]: 58 µM
- TGI [43]: 40 µM
- TGI [44]: 36.9 µM
- TGI [45]: 56 µM
- TGI [46]: 73.3 µM
- TGI [47]: 64.4 µM
- TGI [48]: 25 µM
- TGI [49]: 31.3 µM
- TGI [50]: > 100 µM
- TGI [51]: 30 µM
- TGI [52]: 63.7 µM
- TGI [53]: 9.41 µM
- TGI [54]: 43.8 µM
